Several values for one entry are separate records, joined by “and”; a condition that tells them apart may be missing. Identical values can stand only once.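 How tested: cells in 96-well plates exposed to compound for 48 hours at five concentrations. GI50 = concentration required for 50% inhibition of growth. At the TGI there is no net growth.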 *1 amine or outer side, *2 acyl side, *3 side chain or, on linkers, in order; H or OH if unused. Where a SMILES comes first, the peptide text is derived from it. Bridges are numbered along the chain shown (N, C = ends). Roman numbers before positions name the chains, in order. [ ]: non-standard residue; d: D form. Actinocin(1to9) = Cc1c2oc3c(C)ccc(C(=O)[*:2])c3nc-2c(C(=O)[*:1])c(N)c1=O; NMeV = CN[CH](C(=O)O)C(C)C; Sar = CNCC(=O)O
Columns and labels:
Assay in all cases: NCI tumour cell line growth inhibition, 48 h
[1] = system: IGROV1 ovarian
[2] = system: CCRF-CEM leukemia
[3] = system: A549 NSCLC
[4] = system: HCT-15 colon
[5] = system: EKVX NSCLC
[6] = system: RPMI-8226 leukemia
[7] = system: K-562 leukemia

Compound	TGI [1] [µM]	TGI [2] [µM]	TGI [3] [µM]	TGI [4] [µM]	TGI [5]	TGI [6] [µM]	TGI [7] [µM]	GI50 [5] [µM]
O=C(O[C@H](/C=C/c1ccccc1)P1(=O)N(Cc2ccccc2)[C@H]2CCCC[C@@H]2N1Cc1ccccc1)c1ccccc1	18.6	> 100	> 100	> 100	> 100 µM	17.8	> 100	–
O=C(Cc1csc2[n+]1C(=O)/C(=C/c1ccc(Cl)cc1)S2)Nc1ccccc1	> 100	> 100	84.6	90.6	53.4 µM	> 100	> 100	–
COc1cc2c(SCCN(C)C)nc3ccccc3c2c2ccccc12	2.77	4.56	3.08	3.31	4.08 µM	4.23	> 100	–
O=S(=O)(N=[Se](=O)(c1ccccc1)c1ccccc1)c1ccccc1	> 100	> 100	–	> 100	> 100 µM	> 100	> 100	–
O=[N+]([O-])c1ccc(C2Nn3c(nnc3-c3cccc([N+](=O)[O-])c3)S2)cc1 (stereo not drawn)	> 100	> 100	> 100	> 100	> 100 µM	> 100	> 100	–
CC(NC1=NCCO1)c1ccsc1 (stereo not drawn)	> 100	46.5	> 100	> 100	> 100 µM	59.9	68	–
CC(C)=NC(C(=O)O)C(C)(C)S (stereo not drawn)	> 100	> 100	> 100	> 100	> 100 µM	> 100	> 100	–
Cc1cccc2c(N)c3cccc(C(=O)NCCNCCN)c3nc12	> 100	> 100	20.4	> 100	> 94.6 µM	> 90.1	> 100	–
Cc1cc(N(C)c2ccccc2)nc(N(C)c2ccccc2)n1	> 100	46.5	> 100	> 100	> 100 µM	65.1	> 100	–
CNc1ccc(C)cc1S(=O)(=O)c1ccccc1[N+](=O)[O-]	> 100	> 100	> 100	> 100	> 100 µM	> 100	> 100	–
C=CC(=O)C#Cc1cnc(OC)nc1OC	53.6	2.97	> 100	24.6	> 72 µM	6.93	3.84	–
COc1ccc(C[C@@H]2OC3(C=CC(=O)CC3Sc3ccccc3)O[C@H]2Cc2ccc(OC)cc2)cc1 (stereo partly drawn)	2.13	0.768	12.7	2.8	–	1.31	> 100	–
O=c1c2ccccc2nc(-c2ccccc2)n1/N=C/c1ccccc1[N+](=O)[O-]	> 100	> 100	> 100	> 100	> 100 µM	> 100	> 100	–
CC(=O)OC1CCn2c1nc1c2C(=O)C=C(N2CC2)C1=O (stereo not drawn)	1.88	1.17	6.25	1.96	2.39 µM	1.37	4.54	–
CN(C)CCNc1ncnc2nc(-c3ccccc3)c(-c3ccccc3)nc12	> 100	> 100	> 100	–	> 100 µM	–	–	–
Cc1cc2c(cc1Cl)SC(NNC(=O)c1ccccc1)=NS2(=O)=O	> 10	> 10	> 10	> 10	> 10 µM	> 10	> 10	–
COc1ccc(CC2NC(=O)C(NC(=O)c3c4nc5c(C(=O)NC6C(=O)NC(Cc7ccc(OC)cc7)C(=O)N7CCCC7C(=O)N(C)CC(=O)N(C)C(C(C)C)C(=O)OC6C)ccc(C)c5oc-4c(C)c(=O)c3N)C(C)OC(=O)C(C(C)C)N(C)C(=O)CN(C)C(=O)C3CCCN3C2=O)cc1 (stereo not drawn) (I: TY(Me)P[Sar][NMeV] / II: TY(Me)P[Sar][NMeV]; ester I:1-I:C, II:1-II:C; linker I:N-II:N via Actinocin(1to9); configuration not given here)	–	0.0418	–	–	3.27 µM and 0.862 µM	–	0.0708	0.0514
CCc1n[nH]c(=O)n1-n1c(C)ccc1C	> 100	> 100	> 100	> 100	> 100 µM	> 100	> 100	–
CC(=O)O[C@H]1[C@@H](OC2CCCC2(c2ccccc2)c2ccccc2)O[N+]([O-])=C[C@@H]1c1ccccc1 (stereo partly drawn)	7.61	14	30.9	16.7	30.4 µM	18.9	> 32.9	–
COC(=O)CSc1cc(Cl)c(C)cc1S(=O)(=O)Nc1n[nH]c(N)n1	> 10	> 10	> 10	> 10	> 10 µM	> 10	> 10	–
Cc1ccc(S(=O)(=O)NC(=O)NC(CCCCN)C(=O)O)cc1 (stereo not drawn)	> 100	> 100	> 100	> 100	–	> 100	> 100	–
CCc1cccc(C(C)C)c1NC(=O)C(=O)Nn1c(=S)[nH]c2ccccc2c1=O	> 100	> 100	> 100	> 100	> 100 µM	> 100	> 100	–
COC(=O)c1ccccc1C1CN=NC12Cc1cc3c(cc1C2=O)CCC3 (stereo not drawn)	> 100	> 100	> 100	> 100	> 100 µM	–	> 100	–
COc1ccc(/C=N/NS(=O)(=O)c2ccc(/C=C3\NC(=O)NC3=O)cc2)cc1	> 100	> 100	> 100	> 100	> 100 µM	> 100	> 100	–
C#CCNCC(=O)O	> 100	> 100	> 100	> 100	> 100 µM	> 100	–	–
c1ccc(C2(c3cc4ccccc4[nH]3)OCCO2)nc1	> 100	> 100	> 100	> 100	> 100 µM	–	–	–
Cc1ccc(N=NC(=O)NNc2ccc(C)cc2Br)c(Br)c1	63.8	21	> 100	65.3	–	66.5	51.5	–
O=[N+]([O-])c1ccc(C2=NOC(c3ccccc3)N2C23CC4CC(CC(C4)C2)C3)cc1 (stereo not drawn)	72.5	47.5	96.7	> 100	> 100 µM	–	39.9	–

Compound	TGI [1] [µM]	TGI [2] [µM]	TGI [3] [µM]	TGI [4] [µM]	TGI [5]	TGI [6] [µM]	TGI [7] [µM]	GI50 [5] [µM]
CC(=O)Nn1c(Cc2ccc(Cl)cc2)nn(C)c1=O	> 100	> 100	> 100	> 100	> 100 µM	> 100	> 100	–
Cc1c(CN2CCOCC2)c(CN2CCOCC2)c(C)n1-c1ccc(Cl)cn1	> 100	> 100	> 100	> 100	> 100 µM	> 100	> 100	–
CC1=C(C)C2(C#N)C(=O)N3C(=NC(c4ccco4)NC3c3ccco3)C2(C#N)C(c2ccco2)N1 (stereo not drawn)	> 100	> 100	> 100	> 100	> 100 µM	> 100	–	–
COC1=CC(=O)C2=C(C1=O)[C@H]1CC[C@]3(C)C(=O)CC[C@H]3[C@@H]1CC2	44.5	26.9	> 100	> 100	30.4 µM	81.3	> 100	–
O=[N+]([O-])c1ccccc1S(=O)(=O)c1cccc2c1NCCC2	> 100	> 100	> 100	> 100	> 100 µM	> 100	> 100	–
C#CC(O)/C=C/C(O)CCCC(O)CC#CC(O)C#CCCCCC(O)/C=C/CCCCCC(=O)CCCCCCCCCCCCCC(O)C(O)C#CC(=O)O (stereo not drawn)	9.59	> 25	> 25	> 25	> 25 µM	> 25	> 25	–
C=C(C)C1Cc2c(cc3c(c2O)c(=O)c2ccccc2n3C)O1 (stereo not drawn)	4.16	–	24.9	9.93	35.3 µM	9.72	–	–
O=C(Oc1ccc(C(c2c(O)c3ccccc3oc2=O)c2c(O)c3ccccc3oc2=O)cc1)c1ccc(C(=O)c2ccccc2)cc1	36.6	42.8	55.8	89.4	34.6 µM	56.5	47.9	–
COc1cc2c(cc1OC)C1CN3CCCC3C(O)C1c1cc(OC)c(OC)cc1-2 (stereo not drawn)	> 100	> 100	> 100	> 100	> 100 µM	> 100	> 100	–
CC(C)(C)OC(=O)NC(Cc1ccc(OC(C)(C)C)cc1)C(=O)N[C@H]1CC[C@H](C(=O)O)C1 (stereo partly drawn)	> 100	> 100	> 100	> 100	> 100 µM	> 100	> 100	–
CSc1ncc2c(C#N)c3n(C)c4ccccc4n3c(=O)c2n1	> 100	> 100	> 100	> 100	> 100 µM	> 100	> 100	–
OC(Cc1cnnc2ccccc12)C(Cl)(Cl)Cl (stereo not drawn)	> 10	> 10	> 10	> 10	> 10 µM	> 10	> 10	–
CN(C)/C=N/c1cc(=O)n(C)c(=O)n1C	> 100	> 100	> 100	> 100	> 100 µM	> 100	> 100	–
O=C(O)CCC1C(=O)C2CCN1CC2 (stereo not drawn)	> 100	> 100	> 100	> 100	> 100 µM	> 100	> 100	–
COC(=O)NCCc1[nH]nc2c1C(=O)C=C(Nc1ccccc1OC)C2=O	65.3	88.9	> 100	> 100	> 100 µM	> 100	> 100	–
CSc1ccccc1NC1=NCCO1	> 100	> 100	> 100	> 100	> 100 µM	> 100	> 100	–
Cc1ccc(NC(=O)CC(=O)N2N=C(N(c3ccccc3)c3ccccc3)CC2c2ccccc2)cc1 (stereo not drawn)	> 100	> 100	> 100	> 100	> 100 µM	> 100	> 100	–
CCOC(=O)/C1=C(\C)N(Cc2ccccc2)C(=O)c2ccccc2C(=O)c2c(OC(C)=O)ccc(OC(C)=O)c21	> 100	> 100	> 100	> 100	90.9 µM	45.1	> 100	–
c1ccc(CN2C3C4N(Cc5ccccc5)C2C2N(Cc5ccccc5)C(C(N2Cc2ccccc2)N4Cc2ccccc2)N3Cc2ccccc2)cc1	> 100	> 100	> 100	> 100	> 100 µM	> 100	> 100	–
O=c1nc(N2CCCCC2)sc2[nH]c3ccccc3c12	> 100	–	> 100	> 100	> 100 µM	> 100	> 100	–
S=c1[nH]nc(COc2ccc(Cl)cc2)n1-c1ccccc1	> 100	> 100	> 100	> 100	> 100 µM	–	> 100	–
CC1CCC2C(C)C(OC(=O)CCC(=O)O)OC3OC4(C)CCC1C32OO4 (stereo not drawn)	23.1	36	29.9	> 100	32.7 µM	24.1	19.8	–
C=C1C(=O)O[C@H]2C(=O)[C@H](C)CCC/C(C)=C/CC[C@@]3(C)O[C@@H]3C[C@@H]12	10.2	4.18	21.4	3.12	–	4.79	10.2	–
O=C1CC(=O)NC(=NN2C(=O)CSC2c2ccc(Cl)cc2)N1 (stereo not drawn)	> 100	83.3	> 100	> 100	–	> 100	> 100	–
CC(=O)Nc1ccc2cc(C#N)c(=O)[nH]c2n1	> 100	–	> 100	> 100	> 100 µM	> 100	> 100	–
O=S(=O)(Cc1ccccc1)c1nnc(S(=O)(=O)c2ccc(Cl)cc2)s1	–	–	68.1	39.8	62 µM	61.9	> 100	–
COC1(OC)CCCCCCCCC(OC)(OC)CCCCCCCC1	> 100	–	> 100	> 100	> 100 µM	–	> 100	–

Source: PubChem BioAssay (NCI)
